The structures appear in SMILES notation.

Holding throughout (assay): HIV-1 protease inhibition assay
Holding throughout (details): pH 4.7; 25 °C

Test [1] concerns the target T1, Gag-Pol polyprotein [484-582,Q491K,I497V,V499I,E519D,R541K,D544E,L547P,Q553K,A555V,G557S,I568V,L573M,L574M] (Human immunodeficiency virus, UniProt Q9QBY3, A555V/D544E/E519D/G557S/I497V/I568V/L547P/L573M/L574M/Q491K/Q553K/R541K/V499I).
T1 construct: 484-582
The protocol: (§1) The reaction mixture contained 2 µL of protease and 2 µL of inhibitor (or DMSO as a control) and was incubated for 20-30 min at room temperature prior to the substrate cleavage reaction. 150 µL of a 1 µM substrate were used in substrate buffer (0.1 M sodium acetate, 1 M sodium chloride, 1 mM EDTA, 1 MM DTT, 2% DMSO, and 1 mg/mL BSA with an adjusted pH of 4.7).

The target in test [2] is T2, Gag-Pol polyprotein [484-582,Q491K,I497V,V499I,E519D,G532V,I538V,R541K,D544E,L547P,Q553K,V566A,L573M] (Human immunodeficiency virus, UniProt Q9QBY3, D544E/E519D/G532V/I497V/I538V/L547P/L573M/Q491K/Q553K/R541K/V499I/V566A).
T2 construct: 484-582
The method, then: as §1

Test [3] addresses T3, Gag-Pol polyprotein [484-582,Q491K,I494L,I497V,V499I,E519D,I534V,R541K,D544E,Q553K,A555V,L573M] (Human immunodeficiency virus, UniProt Q9QBY3, A555V/D544E/E519D/I494L/I497V/I534V/L573M/Q491K/Q553K/R541K/V499I).
T3 construct: 484-582
The method, then: as §1

As usually defined, the Ki is the equilibrium dissociation constant of an inhibitor or competing ligand from its target. Lower therefore signals a stronger hold on the target. Turning to `CC[C@H](C)CN(C[C@@H](O)[C@H](Cc1ccccc1)NC(=O)O[C@H]1CO[C@H]2OCC[C@H]21)S(=O)(=O)c1ccc(CO)cc1` [(3R,3aS,6aR)-Hexahydrofuro[2,3-b]furan-3-yl ((2S,3R)-3-hydroxy-4-(4-(hydroxymethyl)-N-((S)-2-methylbutyl)phenylsulfonamido)-1-phenylbutan-2-yl)carbamate (10c)], the Ki came to 0.004 nM in test [1], 0.022 nM in test [2] and 0.013 nM in test [3].
In the same order, the values of `CC[C@H](C)CN(C[C@@H](O)[C@H](Cc1ccccc1)NC(=O)O[C@H]1CO[C@H]2OCC[C@H]21)S(=O)(=O)c1ccc(OC)cc1` [(3R,3aS,6aR)-Hexahydrofuro[2,3-b]furan-3-yl ((2S,3R)-3-hydroxy-4-(4-methoxy-N-((S)-2-methylbutyl)phenylsulfonamido)-1-phenylbutan-2-yl)carbamate (10b)] are 0.021 nM, 0.005 nM and 0.103 nM.
As to `CC[C@H](C)CN(C[C@@H](O)[C@H](Cc1ccccc1)NC(=O)O[C@H]1CO[C@H]2OCC[C@H]21)S(=O)(=O)c1ccc2c(c1)OCO2` [(3R,3aS,6aR)-Hexahydrofuro[2,3-b]furan-3-yl ((2S,3R)-3-hydroxy-4-(N-((S)-2-methylbutyl)benzo[d][1,3]dioxole-5-sulfonamido)-1-phenylbutan-2-yl)carbamate (10d)], the Ki was determined as 0.099 nM in test [1], 0.029 nM in test [2] and 0.035 nM in test [3].
With `CC[C@H](C)CN(C[C@@H](O)[C@H](Cc1ccccc1)NC(=O)O[C@H]1CO[C@H]2OCC[C@H]21)S(=O)(=O)c1ccc2ncsc2c1` [(3R,3aS,6aR)-Hexahydrofuro[2,3-b]furan-3-yl ((2S,3R)-3-hydroxy-4-(N-((S)-2-methylbutyl)benzo[d]thiazole-6-sulfonamido)-1-phenylbutan-2-yl)carbamate (10e)], the Ki worked out at 0.041 nM in test [1], 0.012 nM in test [2] and 0.025 nM in test [3].
Take `CCC(CC)CN(C[C@@H](O)[C@H](Cc1ccccc1)NC(=O)O[C@H]1CO[C@H]2OCC[C@H]21)S(=O)(=O)c1ccc(N)cc1` [(3R,3aS,6aR)-Hexahydrofuro[2,3-b]furan-3-yl ((2S,3R)-4-(4-amino-N-(2-ethylbutyl)phenylsulfonamido)-3-hydroxy-1-phenylbutan-2-yl)carbamate (11a)]: the results for the Ki in test [1], in test [2] and in test [3] were 0.022 nM, 0.034 nM and 0.062 nM, respectively.
In the same order, the values of `CC[C@H](C)CN(C[C@@H](O)[C@H](Cc1ccccc1)NC(=O)O[C@H]1CO[C@H]2OCC[C@H]21)S(=O)(=O)c1ccc(N)cc1` [(3R,3aS,6aR)-Hexahydrofuro[2,3-b]furan-3-yl ((2S,3R)-4-(4-amino-N-((S)-2-methylbutyl)phenylsulfonamido)-3-hydroxy-1-phenylbutan-2-yl)carbamate (10a)] are 0.013 nM, 0.016 nM and 0.006 nM.
Turning to `CCC(CC)CN(C[C@@H](O)[C@H](Cc1ccccc1)NC(=O)O[C@H]1CO[C@H]2OCC[C@H]21)S(=O)(=O)c1ccc(CO)cc1` [(3R,3aS,6aR)-Hexahydrofuro[2,3-b]furan-3-yl ((2S,3R)-4-(N-(2-ethylbutyl)-4-(hydroxymethyl)phenylsulfonamido)-3-hydroxy-1-phenylbutan-2-yl)carbamate (11c)], the results for the Ki in test [1], in test [2] and in test [3] were 0.07 nM, 0.005 nM and 0.026 nM, respectively.
Turning to `CCC(CC)CN(C[C@@H](O)[C@H](Cc1ccccc1)NC(=O)O[C@H]1CO[C@H]2OCC[C@H]21)S(=O)(=O)c1ccc(OC)cc1` [(3R,3aS,6aR)-Hexahydrofuro[2,3-b]furan-3-yl ((2S,3R)-4-(N-(2-ethylbutyl)-4-methoxyphenylsulfonamido)-3-hydroxy-1-phenylbutan-2-yl)carbamate (11b)], the Ki in test [1] worked out at 0.134 nM; in test [2] it was 0.001 nM; in test [3], 0.01 nM.
Consider `CCC(CC)CN(C[C@@H](O)[C@H](Cc1ccccc1)NC(=O)O[C@H]1CO[C@H]2OCC[C@H]21)S(=O)(=O)c1ccc2c(c1)OCO2` [(3R,3aS,6aR)-Hexahydrofuro[2,3-b]furan-3-yl ((2S,3R)-4-(N-(2-ethylbutyl)benzo[d][1,3]dioxole-5-sulfonamido)-3-hydroxy-1-phenylbutan-2-yl)carbamate (11d)], for which the Ki in test [1] stood at 0.104 nM; in test [2], 0.034 nM; in test [3] it was 0.006 nM.
As for `CCC(CC)CN(C[C@@H](O)[C@H](Cc1ccccc1)NC(=O)O[C@H]1CO[C@H]2OCC[C@H]21)S(=O)(=O)c1ccc2ncsc2c1` [(3R,3aS,6aR)-Hexahydrofuro[2,3-b]furan-3-yl ((2S,3R)-4-(N-(2-ethylbutyl)benzo[d]thiazole-6-sulfonamido)-3-hydroxy-1-phenylbutan-2-yl)carbamate (11e)], the inhibitory constant (Ki) was found to be 0.052 nM in test [1], 0.126 nM in test [2] and 0.108 nM in test [3].

The record behind these values is BindingDB's records for doi:10.1016/j.chembiol.2013.07.014 (University of Massachusetts, 2013).
